Data published in patent US10669283B2, “Compound and pharmacologically acceptable salt thereof” (MEIJI SEIKA PHARMA CO., LTD., priority 2016, dated 2020).

test system: PDE4; test: PDE4 inhibition, scintillation proximity assay (SPA); assay type: biochemical; settings: scintillation proximity assay (SPA); evaluated as classes A, B, C; read-out: PDE4 Inhibitory Activity (concentration for the inhibition rate of 50%);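 as to PDE4 Inhibitory Activity (concentration for the inhibition rate of 50%): A below 100 nM B 100 to below 1000 nM C 1000 nM or more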
Summary of the method: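 Scintillation proximity read-out: [2,8-3H]-cAMP hydrolysis by PDE4 ran 120 min at room temperature in Tris-HCl pH 7.4 buffer with 8.3 mM MgCl2, 1.7 mM EGTA and 3 mg/mL BSA. Bead-bound product (YSi-SPA with ZnSO4, 15 min) counted; blank lacks enzyme, control has DMSO only.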

Q: How did the IC50 turn out when `OC(c1cc(-c2cscn2)c2oc(N3CC4CCC(C3)N4)nc2c1OC(F)(F)F)C(F)F` (centres unmarked) [Example 302, 1-(2-(3,8-Diazabicyclo[3.2.1]octan-3-yl)-7-(thiazol-4-yl)-4-(trifluoromethoxy)benzo[d]oxazol-5-yl)-2,2-difluoroethan-1-ol] was run?
A: < 100 nM

Q: For `O=C(c1cc(-c2nccs2)c2oc(N3CC4CCC(C3)N4)nc2c1OC(F)(F)F)N1CCC1` [Example 192, (2-(3,8-Diazabicyclo[3.2.1]octan-3-yl)-7-(thiazol-2-yl)-4-(trifluoromethoxy)benzo[d]oxazol-5-yl) (azetidin-1-yl)methanone], which IC50 is on record?
A: < 100 nM

Q: For `OC(c1cc(-c2cscn2)c2oc(N3CC4CC(C3)N4)nc2c1OC(F)(F)F)C(F)F` (centres unmarked) [Example 301, 1-(2-(3,6-Diazabicyclo[3.1.1]heptan-3-yl)-7-(thiazol-4-yl)-4-(trifluoromethoxy)benzo[d]oxazol-5-yl)-2,2-difluoroethan-1-ol], which IC50 is on record?
A: < 100 nM

Q: With `FC(F)(F)Oc1cc(-c2nccs2)c2oc(N3CC4CC(C3)N4)nc2c1` [Example 56, 2-(3,6-Diazabicyclo[3.1.1]heptan-3-yl)-7-(thiazol-2-yl)-5-(trifluoromethoxy)benzo[d]oxazole] as the molecule, how does the IC50 read?
A: < 100 nM

Q: With `N#CCOC(c1cc(-c2nccs2)c2oc(N3CC4CC(C3)N4)nc2c1)C(F)(F)F` (centres unmarked) [Example 152, 2-(1-(2-(3,6-Diazabicyclo[3.1.1]heptan-3-yl)-7-(thiazol-2-yl)benzo[d]oxazol-5-yl)-2,2,2-trifluoroethoxy)acetonitrile] as the molecule, how does the IC50 read?
A: < 100 nM

Q: Which IC50 does the source give for `OC(c1cc(-c2nccs2)c2oc(N3CC4CCCC(C3)N4)nc2c1)C(F)(F)F` (centres unmarked) [Example 136, 1-(2-(3,9-Diazabicyclo[3.3.1]nonan-3-yl)-7-(thiazol-2-yl)benzo[d]oxazol-5-yl)-2,2,2-trifluoroethan-1-ol] here?
A: < 100 nM

Q: How did the IC50 turn out when `COc1ccc(-c2nccs2)c2oc(N3CC4CCCC(C3)N4)nc12` [Example 77, 2-(3,9-Diazabicyclo[3.3.1]nonan-3-yl)-4-methoxy-7-(thiazol-2-yl)benzo[d]oxazole] was run?
A: < 100 nM

Q: With `COC(c1cc(-c2nccs2)c2oc(N3CC4CCCC(C3)N4)nc2c1)C(F)(F)F` (centres unmarked) [Example 145, 2-(3,9-Diazabicyclo[3.3.1]nonan-3-yl)-7-(thiazol-2-yl)-5-(2,2,2-trifluoro-1-methoxyethyl)benzo[d]oxazole] as the molecule, how does the IC50 read?
A: < 100 nM

Q: For `COC(C)c1ccc(-c2nccs2)c2oc(N3CC4CC(C3)N4)nc12` (centres unmarked) [Example 241, 2-(3,6-Diazabicyclo[3.1.1]heptan-3-yl)-4-(1-methoxyethyl)-7-(thiazol-2-yl)benzo[d]oxazole], which IC50 is on record?
A: < 100 nM

Q: With `CCOC(c1cc(-c2nccs2)c2oc(N3CC4CCC(C3)N4)nc2c1)C(F)(F)F` (centres unmarked) [Example 148, 2-(3,8-Diazabicyclo[3.2.1]octan-3-yl)-5-(1-ethoxy-2,2,2-trifluoroethyl)-7-(thiazol-2-yl)benzo[d]oxazole] as the molecule, how does the IC50 read?
A: < 100 nM

Q: With `OC1(c2cc(-c3nccs3)c3oc(N4CC5CCC(C4)N5)nc3c2OC(F)(F)F)CC1` [Example 274, 1-(2-(3,8-Diazabicyclo[3.2.1]octan-3-yl)-7-(thiazol-2-yl)-4-(trifluoromethoxy)benzo[d]oxazol-5-yl)cyclopropan-1-ol] as the molecule, how does the IC50 read?
A: < 100 nM

Q: `CC(C)(O)c1cc(-c2nccs2)c2oc(N3CC4CC(C3)N4)nc2c1C(F)(F)F` [Example 178, 2-(2-(3,6-Diazabicyclo[3.1.1]heptan-3-yl)-7-(thiazol-2-yl)-4-(trifluoromethyl)benzo[d]oxazol-5-yl)propan-2-ol] was tested. Which IC50 did it give?
A: < 100 nM

Q: For `COC(C)(C)c1cc(-c2nccs2)c2oc(N3CC4CC(C3)N4)nc2c1C(F)(F)F` [Example 176, 2-(3,6-Diazabicyclo[3.1.1]heptan-3-yl)-5-(2-methoxypropan-2-yl)-7-(thiazol-2-yl)-4-(trifluoromethyl)benzo[d]oxazole], which IC50 is on record?
A: < 100 nM

Q: `COC(C)(C)c1cc(-c2nccs2)c2oc(N3CC4CCC(C3)N4)nc2c1` [Example 175, 2-(3,8-Diazabicyclo[3.2.1]octan-3-yl)-5-(2-methoxypropan-2-yl)-7-(thiazol-2-yl)benzo[d]oxazole] was tested. Which IC50 did it give?
A: < 100 nM

Q: With `CC(O)(c1ccc(-c2nccs2)c2oc(N3CC4CCC(C3)N4)nc12)C(F)F` (centres unmarked) [Example 129, 2-(2-(3,8-Diazabicyclo[3.2.1]octan-3-yl)-7-(thiazol-2-yl)benzo[d]oxazol-4-yl)-1,1-difluoropropan-2-ol] as the molecule, how does the IC50 read?
A: < 100 nM

Q: With `OC1(COC(c2ccc(-c3nccs3)c3oc(N4CC5CC(C4)N5)nc23)C(F)(F)F)CC1` (centres unmarked) [Example 232, 1-((1-(2-(3,6-Diazabicyclo[3.1.1]heptan-3-yl)-7-(thiazol-2-yl)benzo[d]oxazol-4-yl)-2,2,2-trifluoroethoxy)methyl)cyclopropan-1-ol] as the molecule, how does the IC50 read?
A: < 100 nM

Q: With `CC(=O)N(C)c1cc(-c2nccs2)c2oc(N3CC4CCC(C3)N4)nc2c1` [Example 101, N-(2-(3,8-diazabicyclo[3.2.1]octan-3-yl)-7-(thiazol-2-yl)benzo[d]oxazol-5-yl)-N-methylacetamide] as the molecule, how does the IC50 read?
A: < 100 nM

Q: For `OCc1ccc(-c2nccs2)c2oc(N3CC4CCCC(C3)N4)nc12` [Example 134, (2-(3,9-Diazabicyclo[3.3.1]nonan-3-yl)-7-(thiazol-2-yl)benzo[d]oxazol-4-yl)methanol], which IC50 is on record?
A: < 100 nM

Q: Which IC50 does the source give for `CC(=O)Nc1ccc(-c2nccs2)c2oc(N3CC4CC(C3)N4)nc12` [Example 35, N-(2-(3,6-diazabicyclo[3.1.1]heptan-3-yl)-7-(thiazol-2-yl)benzo[d]oxazol-4-yl)acetamide] here?
A: 100 to 1000 nM

Q: How did the IC50 turn out when `OCc1ccc(-c2nccs2)c2oc(N3CC4CC(C3)N4)nc12` [Example 133, (2-(3,6-Diazabicyclo[3.1.1]heptan-3-yl)-7-(thiazol-2-yl)benzo[d]oxazol-4-yl)methanol] was run?
A: < 100 nM

Q: `CCOC(c1ccc(-c2nccs2)c2oc(N3CC4CC(C3)N4)nc12)C(F)(F)F` (centres unmarked) [Example 224, 2-(3,6-Diazabicyclo[3.1.1]heptan-3-yl)-4-(1-ethoxy-2,2,2-trifluoroethyl)-7-(thiazol-2-yl)benzo[d]oxazole] was tested. Which IC50 did it give?
A: < 100 nM

Q: Which IC50 does the source give for `CN(CCO)C(=O)c1cc(-c2nccs2)c2oc(N3CC4CCC(C3)N4)nc2c1OC(F)(F)F` [Example 193, 2-(3,8-Diazabicyclo[3.2.1]octan-3-yl)-N-(2-hydroxyethyl)-N-methyl-7-(thiazol-2-yl)-4-(trifluoromethoxy)benzo [d]oxazole-5-carboxamide] here?
A: < 100 nM

Q: Which IC50 does the source give for `OCCOC(c1ccc(-c2nccs2)c2oc(N3CC4CCC(C3)N4)nc12)C(F)(F)F` (centres unmarked) [Example 225, 2-(1-(2-(3,8-Diazabicyclo[3.2.1]octan-3-yl)-7-(thiazol-2-yl)benzo[d]oxazol-4-yl)-2,2,2-trifluoroethoxy)ethan-1-ol] here?
A: < 100 nM

Q: Which IC50 does the source give for `CC(O)(c1ccc(-c2nccs2)c2oc(N3CC4CC(C3)N4)nc12)C(F)(F)F` (centres unmarked) [Example 271, 2-(2-(3,6-Diazabicyclo[3.1.1]heptan-3-yl)-7-(thiazol-2-yl)benzo[d]oxazol-4-yl)-1,1,1-trifluoropropan-2-ol] here?
A: < 100 nM

Q: Which IC50 does the source give for `O=C(O)COc1cc(-c2nccs2)c2oc(N3CC4CCC(C3)N4)nc2c1` [Example 74, 2-((2-(3,8-Diazabicyclo[3.2.1]octan-3-yl)-7-(thiazol-2-yl)benzo[d]oxazol-5-yl)oxy)acetic acid] here?
A: < 100 nM

Q: With `OC(c1cc(-c2nccs2)c2oc(N3CC4CC(C3)N4)nc2c1OC(F)(F)F)C(F)F` (centres unmarked) [Example 293, 1-(2-(3,6-Diazabicyclo[3.1.1]heptan-3-yl)-7-(thiazol-2-yl)-4-(trifluoromethoxy)benzo[d]oxazol-5-yl)-2,2-difluoroethan-1-ol] as the molecule, how does the IC50 read?
A: < 100 nM

Q: With `CC(C)c1cc(-c2nccs2)c2oc(N3CC4CC(C3)N4)nc2c1` [Example 22] as the molecule, how does the IC50 read?
A: < 100 nM

Q: How did the IC50 turn out when `FC(F)(F)c1c(Cl)cc(-c2ccccn2)c2oc(N3CC4COCC(C3)N4)nc12` [Example 14, 7-(5-Chloro-7-(pyridin-2-yl)-4-(trifluoromethyl)benzo[d]oxazol-2-yl)-3-oxa-7,9-diazabicyclo[3.3.1]nonane] was run?
A: 100 to 1000 nM

Q: With `OCC(F)(F)Oc1ccc(-c2cscn2)c2oc(N3CC4CC(C3)N4)nc12` [Example 311, 2-((2-(3,6-Diazabicyclo[3.1.1]heptan-3-yl)-7-(thiazol-4-yl)benzo[d]oxazol-4-yl)oxy)-2,2-difluoroethan-1-ol] as the molecule, how does the IC50 read?
A: < 100 nM

Q: Which IC50 does the source give for `CC(=O)c1ccc(-c2nccs2)c2oc(N3CC4CC(C3)N4)nc12` [Example 244, 1-(2-(3,6-Diazabicyclo[3.1.1]heptan-3-yl)-7-(thiazol-2-yl)benzo[d]oxazol-4-yl)ethan-1-one] here?
A: < 100 nM

Q: With `OCc1cc(-c2nccs2)c2oc(N3CC4CCC(C3)N4)nc2c1C(F)(F)F` [Example 170, (2-(3,8-Diazabicyclo[3.2.1]octan-3-yl)-7-(thiazol-2-yl)-4-(trifluoromethyl)benzo[d]oxazol-5-yl)methanol] as the molecule, how does the IC50 read?
A: < 100 nM

same assay, conditions: scintillation proximity assay; class symbols; read-out: PDE4 Inhibitory Activity

Q: Which IC50 does the source give for `C=CC(F)(F)Oc1ccc(-c2nccs2)c2oc(N3CC4CC(C3)N4)nc12` [Example 351, 2-(3,6-diazabicyclo[3.1.1]heptan-3-yl)-4-((1,1-difluoroallyl)oxy)-7-(thiazol-2-yl)benzo[d] oxazole] here?
A: < 100 nM

Q: For `NS(=O)(=O)c1ccc(-c2nccs2)c2oc(N3CC4CC(C3)N4)nc12` [Example 396, 2-(3,6-diazabicyclo[3.1.1]heptan-3-yl)-7-(thiazol-2-yl) benzo[d]oxazole-4-sulfonamide], which IC50 is on record?
A: < 100 nM

Q: Which IC50 does the source give for `O=C(NO)c1ccc(-c2nccs2)c2oc(N3CC4CC(C3)N4)nc12` [Example 367, 2-(3,6-diazabicyclo[3.1.1]heptan-3-yl)-N-hydroxy-7-(thiazol-2-yl)benzo[d] oxazole-4-carboxamide] here?
A: < 100 nM

Q: Which IC50 does the source give for `ON1C2CC1CN(c1nc3c(OC(F)(F)F)ccc(-c4nccs4)c3o1)C2` [Example 380, 3-(7-(thiazol-2-yl)-4-(trifluoro-methoxy)benzo[d]oxazol-2-yl)-3,6-diazabicyclo [3.1.1]heptan-6-ol] here?
A: < 100 nM
